Laboratory results reported in US9283219B2, “Sublingual films” (Cynapsus Therapeutics, Inc., priority 2010, dated 2016).
Structures can show the parent of a compound that is named as a salt.

Experiments:
[1] = cited from earlier work
[2] = Permeability studies, Franz diffusion cells; format: in vitro ADME; settings: pig
Protocol: Freshly collected buccal tissues were obtained from pig and mucosa's were isolated carefully. The prepared mucosa membranes with approximate size of 4 cm^2 were mounted between donor and receiver chambers of Franz diffusion cells with available diffusion area of 1.77 cm^2. Test treatments and controls were run in quadruplicate. The receiver compartment, which contained a stirring bar, was filled with 8 mL of KRB buffer, pH 7.4 containing 1% BSA. The Franz cells were placed in a heating/stirring block. The temperature was set at 37° C. in order to maintain the tissue surface temperature at 32° C.; the stirring rate was set at 400 rpm. Two milliliters of formulated compound at different pHs was added to the donor chambers, completely covering the exposed mucosa. All dosing solutions contained 0.1% of sodium dithionite, 0.2% DMSO and 5% propylene glycol or glycerin. The donor compartment was covered with Parafilm to minimize evaporation. An aliquot (˜0.5 mL) was taken from the receiver compartment at 2, 60, 90, and 120 min and replaced with an equal volume of buffer warmed at 37° C. Sampling time points from donor compartment were 0, 60, 90 and 120 min. Samples were diluted with 0.5 mL (1:1) of 10% aq. ascorbic acid. The concentration of each analyte was quantified by LC-MS/MS (Appendix I). The whole study was done in dark with yellow light, and glass vials and syringes were used for sampling. […] Cd final is the concentration of the donor at the end of the incubation period (interval), μM.

[3] = subcutaneous injection, 0.5 mg/kg, literature value; cited from earlier work

| Papp at 120 min ([2]; pH 6.4, pH 6.4) [×10⁻⁶ cm/s] | Papp at 120 min ([2]; pH 6.8, pH 6.8) [×10⁻⁶ cm/s] | Papp at 120 min ([2]; pH 7.4, pH 7.4) [×10⁻⁶ cm/s] | Papp at 120 min ([2]; pH 8, pH 8.0) [×10⁻⁶ cm/s] | Papp at 120 min ([2]; pH 8, pH 8.0 + 1% glycerin monostearate) [×10⁻⁶ cm/s] | Papp at 120 min ([2]; pH 8, pH 8.0 + 1% magnesium stearate) [×10⁻⁶ cm/s] | Papp at 120 min ([2]; pH 8, pH 8.0 + 1% tocopherol acetate) [×10⁻⁶ cm/s] | SMILES | adverse effects of intranasal administration ([1]; intranasal administration) | side effect of subcutaneous injection ([1]; subcutaneous injection) | adverse effects of sublingual tablets ([1]; sublingual administration of tablets, prolonged use) | AUCinf [3] [ng·min/mL] | Cmax [3] [ng/mL] | Tmax [3] [min] |
| --- | --- | --- | --- | --- | --- | --- | --- | --- | --- | --- | --- | --- | --- |
| 0.071 | 0.054 | 0.185 | 0.556 | 2.34 | 0.3 | 0.98 | CN1CCc2cccc3c2[C@H]1Cc1ccc(O)c(O)c1-3 [apomorphine] | transient nasal blockage, burning sensation and swollen nose and lips | development of nodules, which often become infected | severe stomatitis on prolonged use with buccal mucosal ulceration in half the patients | – | – | – |
| – | – | – | – | – | – | – | CN1CCc2cccc3c2[C@H]1Cc1ccc(O)c(O)c1-3 [sc inj, apomorphine hydrochloride] | – | – | – | 17828 | 331 | 25 |
